Test results reported in publication PMC7481357, “N-terminal Myristoylation Enhanced the Antimicrobial Activity of Antimicrobial Peptide PMAP-36PW” (Frontiers in Cellular and Infection Microbiology, 2020).

Columns and labels:
S. aureus ATCC 25923 [1] = format: cell-based, Staphylococcus aureus; conditions: S. aureus ATCC 25923; * indicates resistant (CLSI, 2020)
Procedure: (§1) The MICs of Myr-36PW in vitro were measured through microdilution in accordance with the Clinical and Laboratory Standards Institute (CLSI, [2020]). The bacterial cells were cultured for 12 h at 37°C in the appropriate medium and then diluted to 1 × 10^6 CFU/mL. Equal volumes (100 μL) of bacterial cell suspension and two-fold serially diluted different concentrations peptides (0.0039–256 μg/mL) were added to each well of the sterile 96-well plate. The samples were incubated for 18 h at 37°C. After incubation, the MICs of the peptides were determined by evaluating the growth based on the OD600 of the cultures.

S. typhimurium SL 1344 [2] = format: cell-based, Salmonella typhimurium; conditions: S. typhimurium SL 1344; * indicates resistant (CLSI, 2020)
Procedure: as §1

[3] = tested on: L. monocytogenes CICC 21634; format: cell-based, Listeria monocytogenes; conditions: L. monocytogenes CICC 21634; * indicates resistant (CLSI, 2020)
Procedure: as §1

S. aureus ATCC 25923 [4] = assay: Inhibition zone assay (disk diffusion); format: cell-based, Staphylococcus aureus; design: key: +, means the peptide has antibacterial activity; conditions: disk 10 μg peptide, 18 h at 37°C, * P < 0.05, ** P < 0.01 vs PMAP-36PW
Procedure: (§2) The inhibition zone assay was performed through the disk diffusion to evaluate the antimicrobial activity of Myr-36PW in vitro (Dunne et al., [2017]). The four above-mentioned bacterial strains were used as experimental strains, with L. monocytogenes CICC 21634 cultured in BHI medium, and P. aeruginosa GIM 1.551 cultured in TSB medium. The bacterial cells were cultured for 12 h at 37°C in the appropriate medium, and the bacterial cell suspension was spread on LB agar. The disks containing 10 μg of peptides (1 μg/μL) were attached to the solid medium and incubated at 37°C for 18 h. Finally the diameter of the inhibition zone was measured.

S. typhimurium SL 1344 [5] = assay: Inhibition zone assay (disk diffusion); format: cell-based, Salmonella typhimurium; design: key: +, means the peptide has antibacterial activity; conditions: disk 10 μg peptide, 18 h at 37°C, * P < 0.05, ** P < 0.01 vs PMAP-36PW
Procedure: as §2

[6] = tested on: L. monocytogenes CICC 21634; assay: Inhibition zone assay (disk diffusion); format: cell-based, Listeria monocytogenes; design: key: +, means the peptide has antibacterial activity; conditions: disk 10 μg peptide, 18 h at 37°C, * P < 0.05, ** P < 0.01 vs PMAP-36PW
Procedure: as §2

P. aeruginosa GIM 1.551 [7] = format: cell-based, Pseudomonas aeruginosa; conditions: P. aeruginosa GIM 1.551; * indicates resistant (CLSI, 2020)
Procedure: as §1

P. aeruginosa GIM 1.551 [8] = assay: Inhibition zone assay (disk diffusion); format: cell-based, Pseudomonas aeruginosa; design: key: +, means the peptide has antibacterial activity; conditions: disk 10 μg peptide, 18 h at 37°C, * P < 0.05, ** P < 0.01 vs PMAP-36PW
Procedure: as §2

## CO/N=C(\C(=O)N[C@@H]1C(=O)N2C(C(=O)[O-])=C(CSC(=O)c3ccco3)CS[C@H]12)c1csc(N)n1.[Na+] [Ceftiofur Sodium, Ceftiofur sodium]
S. aureus ATCC 25923 [1]
  MICs of different classes of antibiotics: <0.25 µg/mL
S. typhimurium SL 1344 [2]
  MICs of different classes of antibiotics: 4 µg/mL
[3]
  MICs of different classes of antibiotics: 32* μg/mL
S. aureus ATCC 25923 [4]
  In vitro antibacterial activity (disk diffusion): +
S. typhimurium SL 1344 [5]
  In vitro antibacterial activity (disk diffusion): +
[6]
  In vitro antibacterial activity (disk diffusion): +
P. aeruginosa GIM 1.551 [7]
  MICs of different classes of antibiotics: 64* μg/mL
P. aeruginosa GIM 1.551 [8]
  In vitro antibacterial activity (disk diffusion): +
